Laboratory results reported in patent US4515708A, “Corrosion inhibitors” (Exxon Research & Engineering Co., priority 1982, dated 1985).
Where a name gives a salt, the structure may show the parent alone. Read-outs that look alike come from different tables or passages of the source.

Key:
[1] = Corrosion Test 1 (dynamic wheel test; 3 wt% brine/Mentor 28; CO2 + H2S); conditions: for % Protection: 24 h, 70° C.
Protocol: (§1) For each compound three mild steel coupons (approximately 100 mm×12 mm×1.5 mm) were tested at each concentration. Each was contacted in a 250 ml bottle with 200 ml of a test fluid either saturated with a carbon dioxide at 20° C. or containing 100 ppm hydrogen sulphide or having both CO2 and H2 S present in those amounts. The test fluid was treated with a 30% aqueous solution of the compound under test at 2, 10, 50 and 250 ppm except where indicated to the contrary. The coupon was subjected to a dynamic wheel test in which the bottle was mounted radially on the periphery of 650 mm diameter wheel which was rotated at about 40 rpm for 24 hours at 70° C. The weight loss was obtained, and also measured in a control experiment where no inhibitor was present. From this the % protection was calculated as % reduction in weight loss.
Test fluid: 100 ml 3 wt% brine/100 ml Mentor 28 (Mentor®28 is a depolarised kerosene available from Exxon Chemical Company)
(§2) Corrosives: Saturated CO2 +100 ppm H2 S

[2] = Emulsion Test (3 wt% brine / heptane); format: physicochemical; set-up: Emulsion thickness after 30 mins: unit not given here; conditions: for Time to break emulsion: 1 ml of 35 wt% IPA solution, 50 ml 3 wt% brine, 50 ml heptane; for Appearance after 30 mins, hydrocarbon: hydrocarbon layer; for Appearance after 30 mins, hydrocarbon / Appearance after 30 mins, water / Emulsion thickness after 30 mins: 50 ml 3 wt% brine/50 ml heptane; for Appearance after 30 mins, water: water layer
Protocol: 1 ml of the solutions used for Test A was shaken with 50 ml of 3 wt% brine and 50 ml of heptane for 1 minute in a 150 ml bottle. The emulsion was observed, and the time noted for the emulsion to break and form a clean interface with clear liquid layers. If at 30 minutes this had not occurred, the appearance was recorded together with the thickness of any persisting emulsion.

[3] = Corrosion Test 2 (dynamic wheel test; 3 wt% brine; CO2 + H2S); conditions: 24 h, 70° C.
Protocol: as §1
Test Fluid: 200 ml 3 wt% brine
as §2

[4] = Solubility Test (35 wt% solution in isopropylalcohol shaken with water, brine or heptane); format: physicochemical; conditions: for SOLUBILITY IN: Brine: 0.3 ml of 35 wt% IPA solution in 10 ml 5 wt% NaCl solution
Protocol: The active material under test was made up into a 35 wt% solution in isopropylalcohol (IPA). 0.3 ml of this solution was shaken with 10 ml of each of the liquids in which solubility is to be tested: water, 5 wt% NaCl solution (brine) and heptane. The mixture was observed after 30 minutes and 24 hours.

[5] = Corrosion Test 4 (dynamic wheel test; 3 wt% brine + Mentor 28; H2S); conditions: 24 h, 70° C.
Protocol: as §1
Test fluid: 100 ml 3 wt% brine+100 ml Mentor 28
Corrosives: 100 ppm H2 S (prior nitrogen purge)

[6] = 2 ppm, * active material added as undiluted compound
[7] = 10 ppm, * active material added as undiluted compound
[8] = 50 ppm, * active material added as undiluted compound
[9] = 250 ppm, * active material added as undiluted compound
[10] = 0.3 ml of 35 wt% IPA solution in 10 ml heptane, 30 minutes and 24 hours
[11] = 0.3 ml of 35 wt% IPA solution in 10 ml water, observed after 30 minutes and 24 hours

Structure (SMILES)	% Protection ([1]; 2 ppm, 30% solution)	% Protection ([1]; 10 ppm, 30% solution)	% Protection ([1]; 50 ppm, 30% solution)	% Protection ([1]; 250 ppm, 30% solution)	Time to break emulsion [2]	Appearance after 30 mins, hydrocarbon [2]	Appearance after 30 mins, water [2]	SOLUBILITY IN: Heptane [4, 10]	SOLUBILITY IN: Water [4, 11]	also measured
NCCc1ccccn1 [2-aminoethyl pyridine, reference compound]	0%	45%	55%	86%	–	–	–	–	–	–
CCc1ccccn1 [2-ethylpyridine, reference compound]	3%	7%	16%	23%	–	–	–	–	–	–
CCc1ccccn1 [2-ethylpyridine.HCL, reference compound]	10%	10%	24%	18%	–	–	–	–	–	–
CCc1ccncc1 [4-ethylpyridine.HCL, reference compound]	2%	5%	13%	16%	–	–	–	–	–	–
CCCCCCCCCCCCNCCc1ccccn1 [21 acetate salt]	21%	74%	94%	96%	–	–	–	–	–	–
CCCCCCCCNCCc1ccccn1 [Example 2]	–	–	–	–	5 min	clear	clear	–	–	% Protection [1, 6]: 50%; % Protection [1, 7]: 82%; % Protection [1, 8]: 85%; % Protection [1, 9]: 89%; % Protection ([3]; 2 ppm): 37%; % Protection ([3]; 10 ppm): 34%; % Protection ([3]; 50 ppm): 84%; % Protection ([3]; 250 ppm): 94%; SOLUBILITY IN: Heptane [4]: S
CCCCCCCCCCNCCc1ccccn1 [Example 3]	13%	63%	82%	99%	> 30 min	hazy	hazy	S	S	% Protection ([5]; 2 ppm): 0%; % Protection ([5]; 10 ppm): 42%; % Protection ([5]; 50 ppm): 65%; % Protection ([5]; 250 ppm): 76%; % Protection ([3]; 2 ppm): 7%; % Protection ([3]; 10 ppm): 37%; % Protection ([3]; 50 ppm): 91%; % Protection ([3]; 250 ppm): 97%
CCCCCCCCCCCCCCNCCc1ccccn1 [Example 5]	0%	43%	46%	90%	> 30 min	hazy	hazy	S	S	Emulsion thickness after 30 mins [2]: 0.5; % Protection ([3]; 2 ppm): 3%; % Protection ([3]; 10 ppm): 48%; % Protection ([3]; 50 ppm): 93%; % Protection ([3]; 250 ppm): 94%
NCCCNCCc1ccccn1 [Example 14]	–	–	–	–	> 30 min	clear	hazy	S	S	% Protection [1, 6]: 47%; % Protection [1, 7]: 70%; % Protection [1, 8]: 70%; % Protection [1, 9]: 92%; % Protection ([3]; 2 ppm): 26%; % Protection ([3]; 10 ppm): 64%; % Protection ([3]; 50 ppm): 74%; % Protection ([3]; 250 ppm): 90%; SOLUBILITY IN: Brine ([4]; 30 minutes and 24 hours): S
CCCCCCCCCCCCNCCc1ccccn1 [Example 21, N-dodecyl-β-(2-pyridyl)-ethylamine]	17%	51%	86%	93%	–	–	–	–	–	corrosion protection compared with Example 4 ([1]; after addition of acetic acid): substantially identical protection to that seen in Example 4; corrosion protection compared with Example 4 ([1]; unsalified product): inferior corrosion protection to Example 4
CCCCCCCCNCCc1ccncc1 [Example 23]	38%	49%	83%	92%	10 min	clear	clear	–	–	SOLUBILITY IN: Heptane [4]: S; SOLUBILITY IN: Water [4]: S
CCCCCCCCCCNCCc1ccncc1 [Example 24]	58%	80%	88%	95%	> 30 min	hazy	hazy	S	S	–
CCCCCCCCCCCCCCNCCc1ccncc1 [Example 26]	–	–	–	–	> 30 min	clear	hazy	S	S	Emulsion thickness after 30 mins [2]: 1.0
CCCCCCCCCCCCCCCCNCCc1ccncc1 [Example 27]	39%	69%	84%	96%	> 30 min	clear	hazy	S	S	Emulsion thickness after 30 mins [2]: 3.0; % Protection ([3]; 2 ppm): 40%; % Protection ([3]; 10 ppm): 47%; % Protection ([3]; 50 ppm): 84%; % Protection ([3]; 250 ppm): 94%
c1ccc(CNCCc2ccncc2)cc1 [Example 29]	25%	56%	60%	67%	1 min	clear	clear	–	–	–
NCCNCCc1ccncc1 [Example 32]	–	–	–	–	> 30 min	clear	hazy	–	–	–
NCCCNCCc1ccncc1 [Example 33]	–	–	–	–	1 min	clear	clear	–	S	SOLUBILITY IN: Brine ([4]; 30 minutes and 24 hours): S
